In patent publication US4795743A, “2'-deamino-2'-hydroxyistamycin Bo derivatives of low toxicity” (Zaidan Hojin Biseibutsu Kagaku Kenkyu Kai, priority 1986, dated 1989):
In brackets after ≈: the same amount, converted by molar mass. Where two headings read alike, the source gives them in different places.

Experiments:
[1] = tested on: Staphylococcus aureus 209P; assay: Antibacterial spectrum, standard serial dilution method of Japan Society of Chemotherapy; assay type: cell-based; conditions: read-out: Minimum Growth Inhibitory Concentration
[2] = tested on: Staphylococcus aureus Ap 01; assay: Antibacterial spectrum, standard serial dilution method; assay type: cell-based; conditions: read-out: Minimum Growth Inhibitory Concentration
[3] = tested on: Staphylococcus epidermidis 109; assay: as above; assay type: cell-based; conditions: read-out: Minimum Growth Inhibitory Concentration
Sarcina lutea PCI 1001 = assay: as above; assay type: cell-based; conditions: Micrococcus luteus, read-out: Minimum Growth Inhibitory Concentration
[4] = tested on: Corynebacterium bovis 1810; assay: as above; assay type: cell-based; conditions: read-out: Minimum Growth Inhibitory Concentration
Escherichia coli K-12 = assay: as above; assay type: cell-based; conditions: read-out: Minimum Growth Inhibitory Concentration
[5] = tested on: Escherichia coli K-12 R388; assay: as above; assay type: cell-based; conditions: K12R388, 18 h, read-out: Minimum Growth Inhibitory Concentration
[6] = tested on: Escherichia coli K-12 ML1629; assay: as above; assay type: cell-based; conditions: K12ML1629, E. coli K-12 ML1629, Muller-Hinton medium, 37° C., 18 hours, read-out: Minimum Growth Inhibitory Concentration
[7] = tested on: Escherichia coli K-12 ML1630; assay: as above; assay type: cell-based; conditions: K12ML1630, E. coli K-12 ML1630, Muller-Hinton medium, 37° C., 18 hours, read-out: Minimum Growth Inhibitory Concentration
[8] = tested on: Escherichia coli K-12 ML1410; assay: as above; assay type: cell-based; conditions: K12ML1410, 18 h, read-out: Minimum Growth Inhibitory Concentration
[9] = tested on: Escherichia coli K-12 ML1410 R81; assay: as above; assay type: cell-based; conditions: K12ML1410R81, 18 h, read-out: Minimum Growth Inhibitory Concentration
[10] = tested on: Escherichia coli K-12 LA290 R55; assay: as above; assay type: cell-based; conditions: K12LA290R55, 18 h, read-out: Minimum Growth Inhibitory Concentration
[11] = tested on: Escherichia coli K-12 LA290 R56; assay: as above; assay type: cell-based; conditions: K12LA290R56, 18 h, read-out: Minimum Growth Inhibitory Concentration
[12] = tested on: Escherichia coli K-12 LA290 R64; assay: as above; assay type: cell-based; conditions: K12LA290R64, 18 h, read-out: Minimum Growth Inhibitory Concentration
Escherichia coli W677 = assay: as above; assay type: cell-based; conditions: read-out: Minimum Growth Inhibitory Concentration
[13] = tested on: Escherichia coli JR66/W677; assay: as above; assay type: cell-based; conditions: read-out: Minimum Growth Inhibitory Concentration
Escherichia coli JR225 = assay: as above; assay type: cell-based; conditions: JR225, 18 h, read-out: Minimum Growth Inhibitory Concentration
[14] = tested on: Shigella dysernteriae JS11910; assay: as above; assay type: cell-based; conditions: Muller-Hinton medium, 37° C., 18 hours, read-out: Minimum Growth Inhibitory Concentration
[15] = tested on: Shibella flexneri 4b JS11811; assay: as above; assay type: cell-based; conditions: 18 h, read-out: Minimum Growth Inhibitory Concentration
Shigella sonnei = assay: as above; assay type: cell-based; conditions: Muller-Hinton medium, 37° C., 18 hours, read-out: Minimum Growth Inhibitory Concentration
Salmonella typhi T-63 = assay: as above; assay type: cell-based; conditions: Salmonella enterica, 18 h, read-out: Minimum Growth Inhibitory Concentration
[16] = tested on: Salmonella enteritidis 1891; assay: as above; assay type: cell-based; conditions: Salmonella enterica, Muller-Hinton medium, 37° C., 18 hours, read-out: Minimum Growth Inhibitory Concentration
Proteus vulgaris OX19 = assay: as above; assay type: cell-based; conditions: read-out: Minimum Growth Inhibitory Concentration
Proteus rettgeri GN466 = assay: as above; assay type: cell-based; conditions: Providencia rettgeri, read-out: Minimum Growth Inhibitory Concentration
Serratia sp. SOU = assay: as above; assay type: cell-based; conditions: read-out: Minimum Growth Inhibitory Concentration
Serratia sp. 4 = assay: as above; assay type: cell-based; conditions: Muller-Hinton medium, 37° C., 18 hours, read-out: Minimum Growth Inhibitory Concentration
[17] = tested on: Pseudomonas aeruguinosa A3; assay: as above; assay type: cell-based, Pseudomonas aeruginosa; conditions: Pseudomonas aeruguinosa A3; Muller-Hinton medium, 37° C., 18 hours; read-out: Minimum Growth Inhibitory Concentration
[18] = tested on: Pseudomonas aeruguinosa No.12; assay: as above; assay type: cell-based, Pseudomonas aeruginosa; conditions: Muller-Hinton medium, 37° C., 18 hours, read-out: Minimum Growth Inhibitory Concentration
[19] = tested on: Pseudomonas aeruguinosa H9; assay: as above; assay type: cell-based, Pseudomonas aeruginosa; conditions: read-out: Minimum Growth Inhibitory Concentration
[20] = tested on: Pseudomonas aeruguinosa 99; assay: as above; assay type: cell-based, Pseudomonas aeruginosa; conditions: Muller-Hinton medium, 37° C., 18 hours, read-out: Minimum Growth Inhibitory Concentration
[21] = tested on: Pseudomonas aeruguinosa B-13; assay: as above; assay type: cell-based, Pseudomonas aeruginosa; conditions: B13, Muller-Hinton medium, 37° C., 18 hours, read-out: Minimum Growth Inhibitory Concentration
[22] = tested on: Pseudomonas aeruguinosa PST1; assay: as above; assay type: cell-based, Pseudomonas aeruginosa; conditions: Muller-Hinton medium, 37° C., 18 hours, read-out: Minimum Growth Inhibitory Concentration
[23] = tested on: Pseudomonas aeruguinosa ROS 134/PU21; assay: as above; assay type: cell-based, Pseudomonas aeruginosa; conditions: ROS134/PU21, 18 h, read-out: Minimum Growth Inhibitory Concentration
mice = assay: Acute toxicity by intravenous injection in mice; conditions: for acute toxicity (survival, symptoms): mice, intravenous injection, 200 mg/kg
[24] = Staphylococcus epidermidis, 109, 18 h
[25] = Proteus rettgeri GN466, Muller-Hinton medium, 37° C., 18 hours
[26] = Pseudomonas aeruguinosa H9, Muller-Hinton medium, 37° C., 18 hours
[27] = S. aureus 209P, Muller-Hinton medium, 37° C., 18 hours
[28] = Corynebacterium bovis 1810, Muller-Hinton medium, 37° C., 18 hours
[29] = E. coli W677, Muller-Hinton medium, 37° C., 18 hours
[30] = Serratia sp. SOU, Muller-Hinton medium, 37° C., 18 hours

Row | SMILES | MIC [5] | MIC [6] | MIC [7] | MIC [8] | MIC [9] | MIC [10] | MIC [11] | MIC [12] | MIC (Escherichia coli JR225) | MIC [14] | MIC [15] | MIC (Shigella sonnei) | MIC (Salmonella typhi T-63) | MIC [16] | MIC (Serratia sp. 4) | MIC [17] | MIC [18] | MIC [20] | MIC [21] | MIC [22] | other results
1 | CNCC1CCC(O)C(OC2C(N)CC(O)C(N(C)C(=O)CCN)C2O)O1 (stereo not drawn) [Compound No. 4, 4-N-(β-Alanyl)-2'-deamino-2'-hydroxy-3-O-demethylistamycin Bo] | 1.56 µg/mL (≈ 4 µM) | 3.13 µg/mL (≈ 8.02 µM) | 6.25 µg/mL (≈ 16 µM) | 6.25 µg/mL (≈ 16 µM) | 6.25 µg/mL (≈ 16 µM) | 6.25 µg/mL (≈ 16 µM) | 3.13 µg/mL (≈ 8.02 µM) | 1.56 µg/mL (≈ 4 µM) | 1.56 µg/mL (≈ 4 µM) | 3.13 µg/mL (≈ 8.02 µM) | 6.25 µg/mL (≈ 16 µM) | 3.13 µg/mL (≈ 8.02 µM) | 0.78 µg/mL (≈ 2 µM) | 3.13 µg/mL (≈ 8.02 µM) | 12.5 µg/mL (≈ 32 µM) | 0.39 µg/mL (≈ 0.999 µM) | 12.5 µg/mL (≈ 32 µM) | 25 µg/mL (≈ 64 µM) | 12.5 µg/mL (≈ 32 µM) | 12.5 µg/mL (≈ 32 µM) | MIC ([1]; 209P, 18 h): 1.56 µg/mL (≈ 4 µM); MIC ([2]; AP01, 18 h): 3.13 µg/mL (≈ 8.02 µM); MIC [3, 24]: 1.56 µg/mL (≈ 4 µM); MIC (Sarcina lutea PCI 1001; PCI1001, 18 h): 1.56 µg/mL (≈ 4 µM); MIC ([4]; Corynebacterium bovis, 1810, 18 h): 3.13 µg/mL (≈ 8.02 µM); MIC (Escherichia coli K-12; K12, 18 h): 1.56 µg/mL (≈ 4 µM); MIC (Escherichia coli W677; W677, 18 h): 1.56 µg/mL (≈ 4 µM); MIC ([13]; JR66/W677, 18 h): 3.13 µg/mL (≈ 8.02 µM); MIC (Proteus vulgaris OX19; Proteus vulgaris, OX19, 18 h): 1.56 µg/mL (≈ 4 µM); MIC (Proteus rettgeri GN466; [25]): 0.39 µg/mL (≈ 0.999 µM); MIC (Serratia sp. SOU; Serratia, 18 h): 1.56 µg/mL (≈ 4 µM); MIC [19, 26]: 12.5 µg/mL (≈ 32 µM); MIC [23]: 100 µg/mL (≈ 256 µM); acute toxicity (survival, symptoms) (mice): survived without showing any sympton of toxicity; toxicity (mice; overall statement, comparison with istamycin B or low toxicity): lower toxicity than itstamycin B
2 | CNCC1CCC(O)C(OC2C(N)CC(O)C(N(C)C(=O)CN)C2O)O1 (stereo not drawn) [Compound No. 2, 2'-Deamino-2'-hydroxy-3-O-demethylistamycin B] | 3.13 µg/mL (≈ 8.31 µM) | 6.25 µg/mL (≈ 16.6 µM) | 6.25 µg/mL (≈ 16.6 µM) | 6.25 µg/mL (≈ 16.6 µM) | 6.25 µg/mL (≈ 16.6 µM) | 6.25 µg/mL (≈ 16.6 µM) | 3.13 µg/mL (≈ 8.31 µM) | 3.13 µg/mL (≈ 8.31 µM) | 1.56 µg/mL (≈ 4.14 µM) | 12.5 µg/mL (≈ 33.2 µM) | 12.5 µg/mL (≈ 33.2 µM) | 6.25 µg/mL (≈ 16.6 µM) | 0.78 µg/mL (≈ 2.07 µM) | 12.5 µg/mL (≈ 33.2 µM) | 25 µg/mL (≈ 66.4 µM) | 0.39 µg/mL (≈ 1.04 µM) | 25 µg/mL (≈ 66.4 µM) | 50 µg/mL (≈ 133 µM) | 25 µg/mL (≈ 66.4 µM) | 25 µg/mL (≈ 66.4 µM) | MIC [1, 27]: 3.13 µg/mL (≈ 8.31 µM); MIC ([2]; AP01, 18 h): 6.25 µg/mL (≈ 16.6 µM); MIC [3, 24]: 1.56 µg/mL (≈ 4.14 µM); MIC (Sarcina lutea PCI 1001; PCI1001, 18 h): 1.56 µg/mL (≈ 4.14 µM); MIC [4, 28]: 3.13 µg/mL (≈ 8.31 µM); MIC (Escherichia coli K-12; K12, 18 h): 1.56 µg/mL (≈ 4.14 µM); MIC (Escherichia coli W677; [29]): 3.13 µg/mL (≈ 8.31 µM); MIC ([13]; JR66/W677, 18 h): 6.25 µg/mL (≈ 16.6 µM); MIC (Proteus vulgaris OX19; Proteus vulgaris, OX19, 18 h): 1.56 µg/mL (≈ 4.14 µM); MIC (Proteus rettgeri GN466; GN466, 18 h): 1.56 µg/mL (≈ 4.14 µM); MIC (Serratia sp. SOU; [30]): 3.13 µg/mL (≈ 8.31 µM); MIC ([19]; Pseudomonas, H9, 18 h): 12.5 µg/mL (≈ 33.2 µM); MIC [23]: 50 µg/mL (≈ 133 µM); acute toxicity (survival, symptoms) (mice): survived without showing any sympton of toxicity
3 | CNCC1CCC(N)C(OC2C(N)CC(OC)C(N(C)C(=O)CN)C2O)O1 (stereo not drawn) [Istamycin B, istamycin B] | 1.56 µg/mL (≈ 4.01 µM) | 1.56 µg/mL (≈ 4.01 µM) | 6.25 µg/mL (≈ 16 µM) | 3.13 µg/mL (≈ 8.04 µM) | 1.56 µg/mL (≈ 4.01 µM) | 3.13 µg/mL (≈ 8.04 µM) | 0.78 µg/mL (≈ 2 µM) | 1.56 µg/mL (≈ 4.01 µM) | 0.78 µg/mL (≈ 2 µM) | 3.13 µg/mL (≈ 8.04 µM) | 3.13 µg/mL (≈ 8.04 µM) | 3.13 µg/mL (≈ 8.04 µM) | 0.39 µg/mL (≈ 1 µM) | 3.13 µg/mL (≈ 8.04 µM) | 50 µg/mL (≈ 128 µM) | 0.39 µg/mL (≈ 1 µM) | 25 µg/mL (≈ 64.2 µM) | > 100 µg/mL | > 100 µg/mL | 50 µg/mL (≈ 128 µM) | MIC [1, 27]: 0.78 µg/mL (≈ 2 µM); MIC ([2]; AP01, S. aureus Ap 01, Muller-Hinton medium, 37° C., 18 hours): 1.56 µg/mL (≈ 4.01 µM); MIC ([3]; Staphylococcus epidermidis, S. epidermidis 109, Muller-Hinton medium, 37° C., 18 hours): 0.78 µg/mL (≈ 2 µM); MIC (Sarcina lutea PCI 1001; PCI1001, Sarcina lutea PCI 1001, Muller-Hinton medium, 37° C., 18 hours): 0.39 µg/mL (≈ 1 µM); MIC [4, 28]: 0.78 µg/mL (≈ 2 µM); MIC (Escherichia coli K-12; K12, E. coli K-12, Muller-Hinton medium, 37° C., 18 hours): 0.78 µg/mL (≈ 2 µM); MIC (Escherichia coli W677; [29]): 0.78 µg/mL (≈ 2 µM); MIC ([13]; E. coli JR66/W677, Muller-Hinton medium, 37° C., 18 hours): 1.56 µg/mL (≈ 4.01 µM); MIC (Proteus vulgaris OX19; Proteus vulgaris OX19, Muller-Hinton medium, 37° C., 18 hours): 0.78 µg/mL (≈ 2 µM); MIC (Proteus rettgeri GN466; [25]): 0.78 µg/mL (≈ 2 µM); MIC (Serratia sp. SOU; [30]): 25 µg/mL (≈ 64.2 µM); MIC [19, 26]: 12.5 µg/mL (≈ 32.1 µM); MIC [23]: > 100 µg/mL
